Measurements: patent publication US9637472B2, “Substituted 6,5-fused bicyclic heteroaryl compounds” (Epizyme, Inc., priority 2011, dated 2017)
pIC50: −log10 of the molar value.

Biological target: EZH2 (Homo sapiens (Human), UniProt Q15910)
Assay: PRC2 enzyme assay on peptide substrates
Format: biochemical
Conditions: PRC2 enzyme assays on peptide substrates; 4 nM enzyme, 30 min preincubation at 25° C.; read-out: EZH2 IC50

Sequence of EZH2 (Q15910 other isoform, or with tags, fused parts or gaps): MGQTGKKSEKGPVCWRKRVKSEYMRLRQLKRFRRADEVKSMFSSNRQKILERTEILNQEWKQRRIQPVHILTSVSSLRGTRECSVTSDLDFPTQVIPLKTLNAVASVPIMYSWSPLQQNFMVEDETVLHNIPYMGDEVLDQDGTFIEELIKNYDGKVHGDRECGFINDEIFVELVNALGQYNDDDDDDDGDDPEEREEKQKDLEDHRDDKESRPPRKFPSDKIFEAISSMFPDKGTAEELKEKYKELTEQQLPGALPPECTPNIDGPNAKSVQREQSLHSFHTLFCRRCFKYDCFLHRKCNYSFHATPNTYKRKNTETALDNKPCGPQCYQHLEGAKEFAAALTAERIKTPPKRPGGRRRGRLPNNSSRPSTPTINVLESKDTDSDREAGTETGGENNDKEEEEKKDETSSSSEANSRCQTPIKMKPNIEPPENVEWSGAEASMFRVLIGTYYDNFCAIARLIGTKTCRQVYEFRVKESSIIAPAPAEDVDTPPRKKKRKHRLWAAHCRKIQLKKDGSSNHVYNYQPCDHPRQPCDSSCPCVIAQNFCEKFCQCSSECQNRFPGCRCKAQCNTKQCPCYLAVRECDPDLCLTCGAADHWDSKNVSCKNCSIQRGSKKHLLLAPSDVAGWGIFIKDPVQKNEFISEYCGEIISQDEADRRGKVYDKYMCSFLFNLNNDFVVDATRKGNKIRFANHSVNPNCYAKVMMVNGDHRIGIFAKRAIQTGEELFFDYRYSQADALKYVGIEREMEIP
Sequence of EZH2 (O75530 whole entry partner): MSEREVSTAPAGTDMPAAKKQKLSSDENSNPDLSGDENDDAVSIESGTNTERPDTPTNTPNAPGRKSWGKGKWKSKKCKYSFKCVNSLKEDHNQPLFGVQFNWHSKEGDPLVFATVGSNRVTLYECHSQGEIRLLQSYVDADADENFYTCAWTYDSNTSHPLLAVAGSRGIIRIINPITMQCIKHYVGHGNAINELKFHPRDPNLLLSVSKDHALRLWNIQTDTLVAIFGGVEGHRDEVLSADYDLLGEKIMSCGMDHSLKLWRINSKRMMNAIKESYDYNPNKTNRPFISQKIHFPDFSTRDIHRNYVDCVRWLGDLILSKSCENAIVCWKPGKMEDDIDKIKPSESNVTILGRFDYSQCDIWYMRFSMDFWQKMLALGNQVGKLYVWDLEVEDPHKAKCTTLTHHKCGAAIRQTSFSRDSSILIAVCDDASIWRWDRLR
Sequence of EZH2 (Q15022 whole entry partner): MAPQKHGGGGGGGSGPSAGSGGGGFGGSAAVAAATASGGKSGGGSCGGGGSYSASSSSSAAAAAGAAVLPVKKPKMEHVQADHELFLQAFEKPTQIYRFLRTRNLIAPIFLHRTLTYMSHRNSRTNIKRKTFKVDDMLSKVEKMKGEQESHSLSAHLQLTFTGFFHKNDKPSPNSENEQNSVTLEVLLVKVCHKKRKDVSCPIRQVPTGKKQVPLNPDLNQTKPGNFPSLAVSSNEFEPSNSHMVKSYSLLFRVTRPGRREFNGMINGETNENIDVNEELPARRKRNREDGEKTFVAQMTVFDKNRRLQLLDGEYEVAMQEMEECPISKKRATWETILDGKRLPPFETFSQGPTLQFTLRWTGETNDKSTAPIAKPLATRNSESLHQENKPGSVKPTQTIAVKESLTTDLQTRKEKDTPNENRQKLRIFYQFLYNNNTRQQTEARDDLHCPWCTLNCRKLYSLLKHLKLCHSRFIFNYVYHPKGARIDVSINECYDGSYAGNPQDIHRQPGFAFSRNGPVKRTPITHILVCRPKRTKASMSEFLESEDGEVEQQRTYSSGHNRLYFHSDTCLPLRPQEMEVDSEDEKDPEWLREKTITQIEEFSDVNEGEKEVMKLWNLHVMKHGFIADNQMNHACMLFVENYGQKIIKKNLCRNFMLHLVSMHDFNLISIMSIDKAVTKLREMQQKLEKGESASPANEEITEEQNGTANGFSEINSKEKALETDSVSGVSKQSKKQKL
Sequence of EZH2 (Q09028 whole entry partner): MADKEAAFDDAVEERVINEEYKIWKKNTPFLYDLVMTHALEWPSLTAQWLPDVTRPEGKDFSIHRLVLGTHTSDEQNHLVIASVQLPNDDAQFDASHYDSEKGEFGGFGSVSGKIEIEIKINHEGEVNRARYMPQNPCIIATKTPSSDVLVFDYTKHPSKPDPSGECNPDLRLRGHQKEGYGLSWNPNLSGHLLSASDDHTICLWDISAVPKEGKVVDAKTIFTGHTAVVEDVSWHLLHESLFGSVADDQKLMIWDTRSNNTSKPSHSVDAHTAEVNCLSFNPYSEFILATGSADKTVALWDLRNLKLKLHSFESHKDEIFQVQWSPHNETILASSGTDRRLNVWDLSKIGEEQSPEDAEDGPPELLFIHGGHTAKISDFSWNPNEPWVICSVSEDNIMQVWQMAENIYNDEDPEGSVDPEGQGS

| Compound | pIC50 |
| --- | --- |
| Cc1cc(C)c(CNC(=O)c2cc(Br)cc3c2cnn3C2CCN(C(C)C)CC2)c(=O)[nH]1 [Compound D-70] | 5.52 to 6.00 |
| CCc1nn(C(C)C)c2nc(C3=CC(C)(C)NC(C)(C)C3)cc(C(=O)NCc3c(C)cc(C)[nH]c3=O)c12 [Compound B-26, N-((4,6-dimethyl-2-oxo-1,2-dihydropyridin-3-yl)methyl)-3-ethyl-1-isopropyl-6-(2,2,6,6-tetramethyl-1,2,3,6-tetrahydropyridin-4-yl)-1H-pyrazolo[3,4-b]pyridine-4-carboxamide] | 6.00 to 6.52 |
| Cc1cc(C)c(CNC(=O)c2cc(-c3ccc(CN4CCOCC4)cc3C)cc3c2cnn3C2CCCC2)c(=O)[nH]1 [Compound C-6, 1-cyclopentyl-N-((4,6-dimethyl-2-oxo-1,2-dihydropyridin-3-yl)methyl)-6-(2-methyl-4-(morpholinomethyl)phenyl)-1H-indazole-4-carboxamide] | > 6.52 |
| Cc1cc(COCCCN(C)C)c(CNC(=O)c2cc(Br)cc3c2cnn3C2CCCC2)c(=O)[nH]1 [Compound D-90] | 4.30 to 5.00 |
| Cc1cc(C)c(CNC(=O)c2cc(-c3ccc(CN(C)C)cc3)nc3c2cnn3C(C)C)c(=O)[nH]1 [Compound A-22] | 6.00 to 6.52 |
| Cc1cc(C)c(CNC(=O)c2cc(-c3ccc(CN4CCOCC4)cc3)nc3c2c(Br)nn3C(C)C)c(=O)[nH]1 [Compound A-17, 3-bromo-N-((4,6-dimethyl-2-oxo-1,2-dihydropyridin-3-yl)methyl)-1-isopropyl-6-(4-(morpholinomethyl)phenyl)-1H-pyrazolo[3,4-b]pyridine-4-carboxamide] | > 6.52 |
| Cc1cc(CN(C)C)c(CNC(=O)c2cc(-c3ccc(CN4CCOCC4)cc3)nc3c2cnn3C(C)C)c(=O)[nH]1 [Compound A-43] | 6.00 to 6.52 |
| Cc1cc(C)c(CNC(=O)c2cc(COCCCN(C)C)cc3c2cnn3C2CCCC2)c(=O)[nH]1 [Compound D-87] | 5.00 to 5.52 |
| Cc1cc(C)c(CNC(=O)c2cc(C3=CC(C)(C)NC(C)(C)C3)nc3c2cnn3C2CCCC2)c(=O)[nH]1 [Compound B-5, 1-cyclopentyl-N-((4,6-dimethyl-2-oxo-1,2-dihydropyridin-3-yl)methyl)-6-(2,2,6,6-tetramethyl-1,2,3,6-tetrahydropyridin-4-yl)-1H-pyrazolo[3,4-b]pyridine-4-carboxamide] | > 6.52 |
| Cc1cc(C)c(CNC(=O)c2cc(Br)cc3c2cnn3C2CCN(C(=O)CN(C)C)CC2)c(=O)[nH]1 [Compound D-29] | 6.00 to 6.52 |
| Cc1cc(C)c(CNC(=O)c2cc(-c3cccc(CN4CCOCC4)c3)nc3c2cnn3C(C)C)c(=O)[nH]1 [Compound A-54] | 5.52 to 6.00 |
| Cc1cc(C)c(CNC(=O)c2cc(-c3ccc(N4CCN(C(=O)OC(C)(C)C)CC4)nc3)nc3c2cnn3C(C)C)c(=O)[nH]1 [Compound A-44] | 6.00 to 6.52 |
| Cc1cc(C)c(CNC(=O)c2cc(-c3ccc(C(=O)NCCN(C)C)cc3)nc3c2cnn3C(C)C)c(=O)[nH]1 [Compound A-18] | > 6.52 |
| Cc1cc[nH]c(=O)c1CNC(=O)c1cc(-c2cccc(CN3CCN(C)CC3)c2)nc2c1cnn2C(C)C [Compound A-72] | 4.30 to 5.00 |
| Cc1cc(C)c(CNC(=O)c2cc(Cl)cc3c2cnn3C2CCCC2)c(=O)[nH]1 [Compound D-10, 6-chloro-1-cyclopentyl-N-((4,6-dimethyl-2-oxo-1,2-dihydropyridin-3-yl)methyl)-1H-indazole-4-carboxamide] | > 6.52 |
| CCc1cc(C(=O)NCc2c(C)cc(C)[nH]c2=O)c2cnn(C(C)C)c2n1 [Compound B-117] | 5.52 to 6.00 |
| Cc1cc(C)c(CNC(=O)c2cc(Br)cc3c2cnn3C2CCN(C(=O)C(C)(C)C)C2)c(=O)[nH]1 [Compound D-33] | > 6.52 |
| CCc1c(C)[nH]c(=O)c(CNC(=O)c2cc(C3=CC(C)(C)NC(C)(C)C3)nc3c2cnn3C(C)C)c1C [Compound B-122] | 5.00 to 5.52 |
| Cc1cc(C)c(CNC(=O)c2cc(Br)cc3c2cnn3C2CCN(C(=O)C3CCCCC3)CC2)c(=O)[nH]1 [Compound D-27] | 6.00 to 6.52 |
| Cc1cc(C)c(CNC(=O)c2cc(-c3cccc(CN(C)C)c3)nc3c2cnn3C(C)C)c(=O)[nH]1 [Compound A-3, N-((4,6-dimethyl-2-oxo-1,2-dihydropyridin-3-yl)methyl)-6-(3-((dimethylamino)methyl)phenyl)-1-isopropyl-1H-pyrazolo[3,4-b]pyridine-4-carboxamide] | 6.00 to 6.52 |
| Cc1cc(C)c(CNC(=O)c2cc(-c3cccc(OCCCN(C)C)c3)cc3c2cnn3C2CCCC2)c(=O)[nH]1 [Compound C-11, 1-cyclopentyl-N-((4,6-dimethyl-2-oxo-1,2-dihydropyridin-3-yl)methyl)-6-(3-(3-(dimethylamino)propoxy)phenyl)-1H-indazole-4-carboxamide] | > 6.52 |
| Cc1cc(C)c(CNC(=O)c2cc(-c3cnn(CCN4CCOCC4)c3)cc3c2cnn3C2CCCC2)c(=O)[nH]1 [Compound C-33] | > 6.52 |
| Cc1cc(C)c(CNC(=O)c2cc(OC(C)C)nc3c2cnn3C(C)C)c(=O)[nH]1 [Compound B-104] | 5.52 to 6.00 |
| Cc1cc(C)c(CNC(=O)c2cc(C3=CC(C)(C)NC(C)(C)C3)nc3c2c(C)nn3C(C)C)c(=O)[nH]1 [Compound B-13, N-((4,6-dimethyl-2-oxo-1,2-dihydropyridin-3-yl)methyl)-1-isopropyl-3-methyl-6-(2,2,6,6-tetramethyl-1,2,3,6-tetrahydropyridin-4-yl)-1H-pyrazolo[3,4-b]pyridine-4-carboxamide] | 6.00 to 6.52 |

| Compound | pIC50 |
| --- | --- |
| Cc1cc(C)c(CNC(=O)c2cc(Br)cc3c2cnn3C2CCN(C(=O)C3CCNCC3)CC2)c(=O)[nH]1 [Compound D-52] | > 6.52 |
| Cc1cc(C)c(CNC(=O)c2cc(N3CCC(N4CCN(CCS(C)(=O)=O)CC4)CC3)nc3c2cnn3C(C)C)c(=O)[nH]1 [Compound B-102] | 5.52 to 6.00 |
| Cc1cc(CNCC2CCOCC2)c(CNC(=O)c2cccc3c2cnn3C2CCCC2)c(=O)[nH]1 [Compound D-89] | 4.30 to 5.00 |
| Cc1cc(C)c(CNC(=O)c2cc(Br)cc3c2cnn3C2CCN(C(=O)C3CCC3)CC2)c(=O)[nH]1 [Compound D-98] | 6.00 to 6.52 |
| Cc1cc(C)c(CNC(=O)c2cc(C3CC(C)(C)NC(C)(C)C3)nc3c2cnn3C2COC2)c(=O)[nH]1 [Compound B-47] | 6.00 to 6.52 |
| CC(=O)n1ncc2c(C(=O)NCc3c(C)cc(C)[nH]c3=O)cc(C3=CC(C)(C)NC(C)(C)C3)nc21 [Compound B-154] | 4.30 to 5.00 |
| Cc1cc(C)c(CNC(=O)c2cc(C3CCN(C(=O)C(O)CN)CC3)nc3c2cnn3C(C)C)c(=O)[nH]1 (stereo not drawn) [Compound B-96] | 5.52 to 6.00 |
| Cc1ccc(CNC(=O)c2cc(-c3ccc(N4CCN(C)CC4)nc3)nc3c2cnn3C(C)C)c(=O)[nH]1 [Compound A-60] | 5.52 to 6.00 |
| Cc1cc(C)c(CNC(=O)c2cc(N3CCC(=O)CC3)nc3c2cnn3C(C)C)c(=O)[nH]1 [Compound B-95] | 5.52 to 6.00 |
| Cc1cc(C)c(CNC(=O)c2cc(C3CCN(CCS(C)(=O)=O)CC3)nc3c2cnn3C(C)C)c(=O)[nH]1 [Compound B-83] | 6.00 to 6.52 |
| Cc1cc(C)c(CNC(=O)c2cc(C(C)C)cc3c2cnn3C2CCCC2)c(=O)[nH]1 [Compound D-20, 1-cyclopentyl-N-((4,6-dimethyl-2-oxo-1,2-dihydropyridin-3-yl)methyl)-6-isopropyl-1H-indazole-4-carboxamide] | 6.00 to 6.52 |
| Cc1cc(C)c(CNC(=O)c2cc(N3CCC(O)C3)nc3c2cnn3C(C)C)c(=O)[nH]1 (stereo not drawn) [Compound B-119] | 5.52 to 6.00 |
| Cc1cc(C)c(CNC(=O)c2cc(-c3ccc(N4CCN(C(=O)OC(C)(C)C)CC4)nc3)nc3c2cnn3C(C)C)c(=O)[nH]1 [Compound A-6, tert-butyl 4-(5-(4-(((4,6-dimethyl-2-oxo-1,2-dihydropyridin-3-yl)methyl)carbamoyl)-1-isopropyl-1H-pyrazolo[3,4-b]pyridin-6-yl)pyridin-2-yl)piperazine-1-carboxylate] | 6.00 to 6.52 |
| Cc1cc(C)c(CNC(=O)c2cc(C3CCCCC3)nc3c2cnn3C(C)C)c(=O)[nH]1 [Compound B-142] | 5.00 to 5.52 |
| CC(=O)Nc1cc(C(=O)NCc2c(C)cc(C)[nH]c2=O)c2cnn(C(C)C)c2n1 [Compound B-121] | 5.52 to 6.00 |
| Cc1cc(C)c(CNC(=O)c2cc(C3=CCN(C(=O)CN)CC3)nc3c2cnn3C(C)C)c(=O)[nH]1 [Compound B-63] | 6.00 to 6.52 |
| CNCc1cc(C)[nH]c(=O)c1CNC(=O)c1cccc2c1cnn2C1CCCC1 [Compound D-83] | 5.00 to 5.52 |
| COC(=O)/C=C/Cn1ncc2c(C(=O)NCc3c(C)cc(C)[nH]c3=O)cc(C3=CC(C)(C)NC(C)(C)C3)nc21 [Compound B-124] | 5.00 to 5.52 |
| Cc1cc(C)c(CNC(=O)c2cc(C3=CCN(C(=O)C4CCNCC4)CC3)nc3c2cnn3C(C)C)c(=O)[nH]1 [Compound B-20, N-((4,6-dimethyl-2-oxo-1,2-dihydropyridin-3-yl)methyl)-1-isopropyl-6-(1-(piperidine-4-carbonyl)-1,2,3,6-tetrahydropyridin-4-yl)-1H-pyrazolo[3,4-b]pyridine-4-carboxamide] | > 6.52 |
| Cc1cc(C)c(CNC(=O)c2cc(C3CCN(C(=O)[C@H](C)N)CC3)nc3c2cnn3C(C)C)c(=O)[nH]1 [Compound B-105] | 5.52 to 6.00 |
| Cc1cc(C)c(CNC(=O)c2cc(-c3cnc(N)nc3)nc3c2cnn3C(C)C)c(=O)[nH]1 [Compound A-4, 6-(2-aminopyrimidin-5-yl)-N-((4,6-dimethyl-2-oxo-1,2-dihydropyridin-3-yl)methyl)-1-isopropyl-1H-pyrazolo[3,4-b]pyridine-4-carboxamide] | 6.00 to 6.52 |
| Cc1cc(C)c(CNC(=O)c2cc(C3CC(C)(C)NC(C)(C)C3)cc3c2cnn3C2CCCC2)c(=O)[nH]1 [Compound D-3, 1-cyclopentyl-N-((4,6-dimethyl-2-oxo-1,2-dihydropyridin-3-yl)methyl)-6-(2,2,6,6-tetramethylpiperidin-4-yl)-1H-indazole-4-carboxamide] | > 6.52 |
| Cc1cc(C)c(CNC(=O)c2cc(C3=CCN(C(=O)CN)CC3)cc3c2cnn3C2CCCC2)c(=O)[nH]1 [Compound D-47] | > 6.52 |
| Cc1cc(C)c(CNC(=O)c2cc(OC3CCN(C)CC3)nc3c2cnn3C(C)C)c(=O)[nH]1 [Compound B-6, N-((4,6-dimethyl-2-oxo-1,2-dihydropyridin-3-yl)methyl)-1-isopropyl-6-((1-methylpiperidin-4-yl)oxy)-1H-pyrazolo[3,4-b]pyridine-4-carboxamide] | 6.00 to 6.52 |
